A word on the EC50: it is the midpoint of the concentration-response curve.

Here are results for 16 molecules from patent US9796711B2, “Substituted pyrazolo[3,4-b]pyridin-6-carboxylic acids and method of use” (AbbVie S.àr.l., priority 2015, dated 2017).

Test [1] addresses T1, ΔF508-CFTR (Homo sapiens, UniProt P13569, DEL508-508).
T1 construct: host or cells: CFBE41o-, doxycycline-inducible
As to the kind of experiment: CFTR cell surface levels using HRP-tagged ΔF508-CFTR expressing CFBE cells, in the presence of a co-corrector. It counts as cell-based. Summed up:
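Cells were seeded with 0.5 μg/mL doxycycline and held 68 h at 37 °C. Test compounds plus 3 μM co-corrector (final 0.1% DMSO) were then added for 20 h at 33 °C. Washed cells received HRP substrate, and luminescence was normalized between DMSO and 3 μM co-corrector controls.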

The target in test [2] is T1, ΔF508-CFTR. As to the kind of experiment: CFTR cell surface levels using HRP-tagged ΔF508-CFTR expressing CFBE cells, intrinsic corrector capacity. It is filed as cell-based. The method in brief: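 Here the cells express ΔF508-CFTR with horseradish peroxidase inserted in extracellular loop 4, so only rescued channel at the surface gives luminescent signal. Compounds act on their own, 20 h at the reduced temperature of 33 °C; values are percent activity relative to DMSO and a 3 μM corrector.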

Where [3] appears, read: HRP-tagged ΔF508-CFTR expressing CFBE cells, in the presence of 3 μM co-corrector.
[4] abbreviates: HRP-tagged ΔF508-CFTR expressing CFBE cells, in the presence of 3 μM co-corrector, read-out: EC50.
The mark [5] stands for this setting: HRP-tagged ΔF508-CFTR expressing CFBE cells, intrinsic corrector capacity (no co-corrector), 33° C., 20 hours.
[6] abbreviates: HRP-tagged ΔF508-CFTR expressing CFBE cells, intrinsic corrector capacity (no co-corrector), 33° C., 20 hours, read-out: EC50.
Setting [7] is: HRP-tagged ΔF508-CFTR CFBE41o- cells, compounds alone (intrinsic corrector capacity), 20 hours at 33° C., positive control 3 μM corrector.
Setting [8] is: HRP-tagged ΔF508-CFTR CFBE41o- cells, compounds alone (intrinsic corrector capacity), 20 hours at 33° C., read-out: EC50.

T1 sequence (P13569 with tags, fused parts or gaps DEL508-508): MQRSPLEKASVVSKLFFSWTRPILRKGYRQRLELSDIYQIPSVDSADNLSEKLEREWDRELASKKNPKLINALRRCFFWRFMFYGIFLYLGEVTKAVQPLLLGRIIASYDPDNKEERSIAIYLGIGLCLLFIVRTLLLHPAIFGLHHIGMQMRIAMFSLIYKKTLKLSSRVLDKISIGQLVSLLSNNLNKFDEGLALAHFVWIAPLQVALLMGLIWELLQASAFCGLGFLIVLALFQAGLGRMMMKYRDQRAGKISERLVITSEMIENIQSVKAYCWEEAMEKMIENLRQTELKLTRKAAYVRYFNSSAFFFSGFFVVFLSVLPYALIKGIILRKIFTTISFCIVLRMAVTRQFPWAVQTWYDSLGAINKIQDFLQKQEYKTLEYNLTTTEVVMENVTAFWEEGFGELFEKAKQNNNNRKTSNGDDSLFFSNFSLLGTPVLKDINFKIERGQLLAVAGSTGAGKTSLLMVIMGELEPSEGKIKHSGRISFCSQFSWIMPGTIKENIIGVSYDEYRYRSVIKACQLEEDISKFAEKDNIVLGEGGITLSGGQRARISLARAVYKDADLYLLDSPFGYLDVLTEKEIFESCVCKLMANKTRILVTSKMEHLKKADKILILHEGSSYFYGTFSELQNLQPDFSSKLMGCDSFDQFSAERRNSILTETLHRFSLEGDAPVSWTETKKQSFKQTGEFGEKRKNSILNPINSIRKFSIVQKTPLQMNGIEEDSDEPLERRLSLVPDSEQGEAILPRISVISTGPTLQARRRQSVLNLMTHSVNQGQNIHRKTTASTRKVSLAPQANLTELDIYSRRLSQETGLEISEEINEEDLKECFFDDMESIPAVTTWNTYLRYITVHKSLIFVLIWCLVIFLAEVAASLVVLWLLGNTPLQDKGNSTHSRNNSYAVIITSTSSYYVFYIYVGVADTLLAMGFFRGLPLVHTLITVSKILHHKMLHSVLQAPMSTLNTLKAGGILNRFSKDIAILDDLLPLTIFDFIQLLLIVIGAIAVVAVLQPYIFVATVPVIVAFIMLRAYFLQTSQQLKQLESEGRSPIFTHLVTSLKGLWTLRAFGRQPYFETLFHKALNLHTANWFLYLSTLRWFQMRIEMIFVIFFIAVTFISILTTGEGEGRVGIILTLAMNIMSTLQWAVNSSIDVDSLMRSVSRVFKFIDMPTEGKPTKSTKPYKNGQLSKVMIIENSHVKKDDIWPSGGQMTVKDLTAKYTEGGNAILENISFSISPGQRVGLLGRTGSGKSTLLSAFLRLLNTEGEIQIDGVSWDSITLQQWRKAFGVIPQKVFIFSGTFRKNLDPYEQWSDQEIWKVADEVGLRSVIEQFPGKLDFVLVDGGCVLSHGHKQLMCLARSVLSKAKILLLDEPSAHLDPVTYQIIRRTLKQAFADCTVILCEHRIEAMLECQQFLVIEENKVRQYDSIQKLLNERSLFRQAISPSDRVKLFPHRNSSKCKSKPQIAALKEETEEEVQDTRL

With `CN(C)CC1CN(c2cc(C(=O)O)nc3c2c(C2CCC2)nn3-c2ccccc2)CCO1` (stereo not shown) [compound 562, 3-cyclobutyl-4-{2-[(dimethylamino)methyl]morpholin-4-yl}-1-phenyl-1H-pyrazolo[3,4-b]pyridine-6-carboxylic acid], the “% Activation” value in test [1] (setting [3]) is 347%; in test [2] (setting [5]), 154.7%. For the same molecule, the EC50 in test [1] (setting [4]) was 921 nM; in test [2] (setting [6]), 1770 nM.
Take `O=C(O)c1cc(N2CCC3(CCCO3)C2)c2c(C3CCC3)nn(-c3ccccc3)c2n1` (stereo not shown) [compound 518, 3-cyclobutyl-4-(1-oxa-7-azaspiro[4.4]nonan-7-yl)-1-phenyl-1H-pyrazolo[3,4-b]pyridine-6-carboxylic acid]: the entries for the “% Activation” value in test [1] (setting [3]) and in test [2] (setting [5]) were 237% and 62.95%, respectively. Also, the EC50 in test [1] (setting [4]) is 531 nM; in test [2] (setting [6]), 371 nM.
As to `Cc1nn(-c2ccccc2)c2nc(C(=O)O)cc(-c3ccc(N4CC(C)(C)C4)cc3)c12` [compound 73, 4-[4-(3,3-dimethylazetidin-1-yl)phenyl]-3-methyl-1-phenyl-1H-pyrazolo[3,4-b]pyridine-6-carboxylic acid], the “% Activation” value in test [1] (setting [3]) is 303.9%; in test [2] (setting [7]), 110.1%. Also, the results for the EC50 in test [1] (setting [4]) and in test [2] (setting [8]) were 3250 nM and 3170 nM, respectively.
For `CC(C)c1nn(-c2ccc(F)c(F)c2)c2nc(C(=O)O)cc(-c3ccc(N4CCC(C#N)CC4)nc3)c12` [compound 279, 4-[6-(4-cyanopiperidin-1-yl)pyridin-3-yl]-1-(3,4-difluorophenyl)-3-(propan-2-yl)-1H-pyrazolo[3,4-b]pyridine-6-carboxylic acid], the “% Activation” value in test [1] (setting [3]) amounted to 427.65%; in test [2] (setting [7]) it was 257.8%. The EC50 in test [1] (setting [4]) worked out at 499 nM; in test [2] (setting [8]) it was 900 nM.
As to `Cc1nn(-c2ccccc2)c2nc(C(=O)O)cc(N3CCC(O)CC3)c12` [compound 137, 4-(4-hydroxypiperidin-1-yl)-3-methyl-1-phenyl-1H-pyrazolo[3,4-b]pyridine-6-carboxylic acid], the “% Activation” value amounted to 158.05% in test [1] (setting [3]) and 27.985% in test [2] (setting [7]). For the same molecule, the EC50 in test [1] (setting [4]) is 3340 nM; in test [2] (setting [8]), over 10000 nM.
As for `COCCN1CCN(c2cc(C(=O)O)nc3c2c(C2CCC2)nn3-c2ccccc2)CC1` [compound 571, 3-cyclobutyl-4-[4-(2-methoxyethyl)piperazin-1-yl]-1-phenyl-1H-pyrazolo[3,4-b]pyridine-6-carboxylic acid], the EC50 was determined as 328 nM in test [1] and 812 nM in test [2]. The “% Activation” value in test [1] (setting [3]) came to 334.05%; in test [2] (setting [5]), 189.6%.
`Cc1nn(-c2ccccc2)c2nc(C(=O)O)cc(N3CCOCC3)c12` [compound 118, 3-methyl-4-(morpholin-4-yl)-1-phenyl-1H-pyrazolo[3,4-b]pyridine-6-carboxylic acid]: the “% Activation” value in test [1] (setting [3]) amounted to 165.25%; in test [2] (setting [7]), 26.575%. In addition, the EC50 in test [1] (setting [4]) was 3340 nM; in test [2] (setting [8]) it was 6670 nM.
In the case of `COC1CCN(c2cc(C(=O)O)nc3c2c(C(C)C)nn3C2CCCCC2)CC1` [compound 264, 1-cyclohexyl-4-(4-methoxypiperidin-1-yl)-3-(propan-2-yl)-1H-pyrazolo[3,4-b]pyridine-6-carboxylic acid], the entries for the “% Activation” value in test [1] (setting [3]) and in test [2] (setting [7]) were 428.47% and 213.88%, respectively. Also, the EC50 in test [1] (setting [4]) stood at 463 nM; in test [2] (setting [8]), 747 nM.
On to `CN1CC[C@H](Oc2cc(C(=O)O)nc3c2c(C2CCC2)nn3-c2ccccc2)C1` [compound 651, 3-cyclobutyl-4-{[(3S)-1-methylpyrrolidin-3-yl]oxy}-1-phenyl-1H-pyrazolo[3,4-b]pyridine-6-carboxylic acid], for which the “% Activation” value is listed as 187.9% in test [1] (setting [3]) and 54.22% in test [2] (setting [5]). Further, the EC50 in test [1] (setting [4]) turned out to be 2200 nM; in test [2] (setting [6]) it was 3330 nM.
As for `CC(C)(CO)c1nn(-c2ccccc2)c2nc(C(=O)O)cc(-c3ccc(N4CCOCC4)nc3)c12` [compound 92, 3-(1-hydroxy-2-methylpropan-2-yl)-4-[6-(morpholin-4-yl)pyridin-3-yl]-1-phenyl-1H-pyrazolo[3,4-b]pyridine-6-carboxylic acid], the “% Activation” value in test [1] (setting [3]) was determined as 99.81%; in test [2] (setting [7]), 2.873%. The EC50 in test [1] (setting [4]) and in test [2] (setting [8]) was over 10000 nM each time.
In the case of `COCC1(OC)CCN(c2cc(C(=O)O)nc3c2c(C2CCC2)nn3-c2ccccc2)CC1` [compound 526, 3-cyclobutyl-4-[4-methoxy-4-(methoxymethyl)piperidin-1-yl]-1-phenyl-1H-pyrazolo[3,4-b]pyridine-6-carboxylic acid], the entries for the “% Activation” value in test [1] (setting [3]) and in test [2] (setting [5]) were 284.5% and 97.7%, respectively. In addition, the EC50 in test [1] (setting [4]) came out at 370 nM; in test [2] (setting [6]), 406 nM.
For `CN(C)CC(C)(C)COc1cc(C(=O)O)nc2c1c(C1CCC1)nn2-c1ccccc1` [compound 636, 3-cyclobutyl-4-[3-(dimethylamino)-2,2-dimethylpropoxy]-1-phenyl-1H-pyrazolo[3,4-b]pyridine-6-carboxylic acid], in that order: 391.3%, 184.1%, 790 nM and 617 nM.
Regarding `CN(c1ncc(-c2cc(C(=O)O)nc3c2c(C2CCC2)nn3-c2cccc(N3CCCC3)c2)cn1)C1CCOCC1` [compound 277, 3-cyclobutyl-4-{2-[methyl(oxan-4-yl)amino]pyrimidin-5-yl}-1-[3-(pyrrolidin-1-yl)phenyl]-1H-pyrazolo[3,4-b]pyridine-6-carboxylic acid], the “% Activation” value was 608.57% in test [1] (setting [3]) and 356.47% in test [2] (setting [7]). The concentration for a half-maximal effect (EC50) worked out at 515 nM in test [1] (setting [4]) and 513 nM in test [2] (setting [8]).
For the molecule `CCN(CC)CCC1CCN(c2cc(C(=O)O)nc3c2c(C2CCC2)nn3-c2ccccc2)CC1` [compound 448, 3-cyclobutyl-4-{4-[2-(diethylamino)ethyl]piperidin-1-yl}-1-phenyl-1H-pyrazolo[3,4-b]pyridine-6-carboxylic acid], the results for the “% Activation” value in test [1] (setting [3]) and in test [2] (setting [5]) were 387.15% and 239.2%, respectively. Further, the EC50 in test [1] (setting [4]) was found to be 646 nM; in test [2] (setting [6]), 1080 nM.
For `CC1(CO)CN(c2cc(C(=O)O)nc3c2c(C2CCC2)nn3-c2ccccc2)C1` [compound 511, 3-cyclobutyl-4-[3-(hydroxymethyl)-3-methylazetidin-1-yl]-1-phenyl-1H-pyrazolo[3,4-b]pyridine-6-carboxylic acid], in that order: 214.6%, 56.48%, 1030 nM and 3340 nM.
Turning to `O=C(O)c1cc(N2CCN3C[C@H](O)C[C@H]3C2)c2c(C3CCC3)nn(-c3ccccc3)c2n1` [compound 475, 3-cyclobutyl-4-[(7R,8aS)-7-hydroxyhexahydropyrrolo[1,2-a]pyrazin-2(1H)-yl]-1-phenyl-1H-pyrazolo[3,4-b]pyridine-6-carboxylic acid], the “% Activation” value in test [1] (setting [3]) was 163.35%; in test [2] (setting [5]), 35.755%. The EC50 worked out at 2720 nM in test [1] (setting [4]) and 6670 nM in test [2] (setting [6]).
